Experimental data published in patent publication US12161642B2, “Ferrochelatase inhibitors and methods of use” (INDIANA UNIVERSITY RESEARCH AND TECHNOLOGY CORPORATION, priority 2018, dated 2024).

Key:
[1] = biological target: recombinant human FECH (Homo sapiens (Human), UniProt P22830); experiment: FECH enzymatic activity assay (Ni2+ mesoporphyrin IX formation, absorbance at 550 nm); assay type: biochemical; settings: recombinant FECH; read-out: FECH IC50
Procedure: The human FECH expression plasmid pHDTF20 was obtained in E. coli cells from the Dailey Lab (University of Georgia). The cells were grown in Circlegrow medium (MP Biomedicals, LLC #3000-122) with ampicillin for 20 hours. Cells were harvested, lysed in a Tris-MOPS buffer and purified by immobilized metal affinity chromatography using HisPur Cobalt resin (Thermo Fisher #89965).
The activity assay buffer was 100 mM Tris-HCl pH 8.0 with 0.05% octyl glucoside detergent. Assay reagents included 100 μM NiCl (Sigma #339350), 0.75 μM FECH enzyme and 100 μM mesoporphyrin (Sigma #258806) prepared in ammonium hydroxide (Santa Cruz #sc-214535).
The kinetic assay was optimized for a 384-well format. For the 384-well assay, each well contained a 50 μL reaction with 40 μL buffer, 5 μL mesoporphyrin solution, 5 μL NiCl and FECH solution. […] This time point was used for the chemical screen.
A mixture of assay buffer, NiCl and FECH enzyme (15 μL) was added to all wells on the assay plate using a MulitFlo dispenser. To start the reaction, 15 μL of a 333 μM mesoporphyrin solution in assay buffer was added to the plate, the plate spun down and the absorbance at OD=550 nm immediately read to establish a read at time 0. Plates were read for absorbance at OD=550 nm again at t=20 minutes and the activity was expressed as the change in the absorbance over the 20 minute reaction.
Compounds, reordered from ChemDiv or synthesized as described above, were made to 10 mM in DMSO and tested in the FECH enzymatic assay at final concentrations of […] 100 μM (1% final DMSO concentration). IC50 values for the compounds were determined using GraphPad Prism software.
A kinetic assay to monitor FECH enzymatic activity was adapted from a published protocol (Burden et a., Biochim Biophys Acta 1435, 191-197 (1999)).

[2] = system: HRECs; experiment: HREC proliferation assay (alamarBlue), GI50 determination; assay type: cell-based, human; settings: proliferation of HRECs
Procedure: Human retinal microvascular endothelial cells (HRECs) were cultured in EGM-2 medium (Lonza). Cells (2500/well) in EGM-2 medium were plated in 48 wells in the center of a 96-well black with clear bottom TC treated plate are allowed to attach overnight. The cells were treated with compounds such that final assay concentrations were 100 μM, 30 μM, 10 μM, 3 μM, 1 μM, 100 nM, and 10 nM with DMSO control (1% final DMSO concentration). Cells were allowed to proliferate for 44 hours prior to addition of alamarBlue. The alamarBlue reagent is a flurorometric/colorimetric redox reagent that is reduced in the presence of growing cells. The assay was completed with a read of fluorescence at excitation of 560 nm and emission of 590 nm. GI50 values were determined using GraphPad Prism software.

Chain of recombinant human FECH (P22830 55-423): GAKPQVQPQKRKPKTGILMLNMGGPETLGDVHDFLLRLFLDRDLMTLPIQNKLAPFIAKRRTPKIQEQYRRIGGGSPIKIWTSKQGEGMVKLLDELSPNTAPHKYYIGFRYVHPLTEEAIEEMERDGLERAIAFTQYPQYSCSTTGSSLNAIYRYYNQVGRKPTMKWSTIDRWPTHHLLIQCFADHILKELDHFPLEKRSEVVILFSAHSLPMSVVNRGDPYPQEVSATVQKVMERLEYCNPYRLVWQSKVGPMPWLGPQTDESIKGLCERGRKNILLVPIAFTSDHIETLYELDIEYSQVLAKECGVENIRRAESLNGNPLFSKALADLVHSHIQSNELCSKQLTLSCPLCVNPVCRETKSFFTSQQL

IC50 [1] [µM]	Compound	GI50 ([2]; Homo sapiens, HREC, 44 h) [µM]	GI50 ([2]; 44 hours) [µM]
> 100	CC(C)(C)c1ccc(-c2n[nH]c(N)n2)cc1 [Example 1, 3-(4-(tert-butyl)phenyl)-1H-1,2,4-triazol-5-amine]	> 100	
> 100	Cc1cc(=O)n2nc(-c3ccc(C(C)(C)C)cc3)nc2[nH]1 [Example 2, 2-(4-(tert-butyl)phenyl)-5-methyl-[1,2,4]triazolo[1,5-a]pyrimidin-7(4H)-one]	> 100	
> 100	CC(C)(C)c1ccc(-c2nc3[nH]c(CCl)cc(=O)n3n2)cc1 [Example 3, 2-(4-(tert-butyl)phenyl)-5-(chloromethyl)-[1,2,4]triazolo[1,5-a]pyrimidin-7(4H)-one]	> 100	
> 100	CN(Cc1ccccc1)Cc1cc(=O)n2nc(-c3ccc(C(C)(C)C)cc3)nc2[nH]1 [Example 4a, 5-((benzyl(methyl)amino)methyl)-2-(4-(tert-butyl)phenyl)-[1,2,4]triazolo[1,5-a]pyrimidin-7(4H)-one]	> 100	
> 100	CC(C)(C)c1ccc(-c2nc3[nH]c(CNc4ccnn4-c4ccccc4)cc(=O)n3n2)cc1 [Example 4b, 2-(4-(tert-butyl)phenyl)-5-(((1-phenyl-1H-pyrazol-5-yl)amino)methyl)-[1,2,4]triazolo[1,5-a]pyrimidin-7(4H)-one]	> 100	
> 100	CC(C)(C)c1ccc(-c2nc3[nH]c(CNCCc4ccccc4)cc(=O)n3n2)cc1 [Example 4c, 2-(4-(tert-butyl)phenyl)-5-((phenethylamino)methyl)-[1,2,4]triazolo[1,5-a]pyrimidin-7(4H)-one]	> 100	
> 100	CC(C)(C)c1ccc(-c2nc3[nH]c(CNc4cnccn4)cc(=O)n3n2)cc1 [Example 4d, 2-(4-(tert-butyl)phenyl)-5-((pyrazin-2-ylamino)methyl)-[1,2,4]triazolo[1,5-a]pyrimidin-7(4H)-one]	> 100	
> 100	CC(C)(C)c1ccc(-c2nc3[nH]c(CNC4CCCC4)cc(=O)n3n2)cc1 [Example 4f, 2-(4-(tert-butyl)phenyl)-5-((cyclopentylamino)methyl)-[1,2,4]triazolo[1,5-a]pyrimidin-7(4H)-one]	> 100	
> 100	CCN(CC)Cc1cc(=O)n2nc(-c3ccc(C(C)(C)C)cc3)nc2[nH]1 [Example 4g, 2-(4-(tert-butyl)phenyl)-5-((diethylamino)methyl)-[1,2,4]triazolo[1,5-a]pyrimidin-7(4H)-one]	> 100	
0.508	CCCc1cc(=O)n2nc(CNc3cccc(C)c3)nc2[nH]1 [Example 5b, 5-propyl-2-((m-tolylamino)methyl)-[1,2,4]triazolo[1,5-a]pyrimidin-7(4H)-one]	> 100	
0.346	CCCc1cc(=O)n2nc(CNc3cccc(Cl)c3)nc2[nH]1 [Example 5e, 2-(((3-chlorophenyl)amino)methyl)-5-propyl-[1,2,4]triazolo[1,5-a]pyrimidin-7(4H)-one]	> 100	
0.0916	CCCc1cc(=O)n2nc(CNc3ccc(Cl)cc3)nc2[nH]1 [Example 5f, 2-(((4-chlorophenyl)amino)methyl)-5-propyl-[1,2,4]triazolo[1,5-a]pyrimidin-7(4H)-one]		> 100
27.3	CCCc1cc(=O)n2nc(CNc3ccccc3-c3ccccc3)nc2[nH]1 [Example 5g, 2-(([1,1′-biphenyl]-2-ylamino)methyl)-5-propyl-[1,2,4]triazolo[1,5-a]pyrimidin-7(4H)-one]	> 100	
0.0336	CCCc1cc(=O)n2nc(CNc3ccc(F)c(Cl)c3)nc2[nH]1 [Example 5i, 2-(((3-chloro-4-fluorophenyl)amino)methyl)-5-propyl-[1,2,4]triazolo[1,5-a]pyrimidin-7(4H)-one]	> 100	
10.6	CCCc1cc(=O)n2nc(CNc3ccc(CC)cc3)nc2[nH]1 [Example 5j, 2-(((4-ethylphenyl)amino)methyl)-5-propyl-[1,2,4]triazolo[1,5-a]pyrimidin-7(4H)-one]	> 100	
0.0429	CCCc1cc(=O)n2nc(CNc3ccc(F)c(F)c3)nc2[nH]1 [Example 5k, 2-(((3,4-difluorophenyl)amino)methyl)-5-propyl-[1,2,4]triazolo[1,5-a]pyrimidin-7(4H)-one]	> 100	
78	CCCCCOc1ccc(NCc2nc3[nH]c(CCC)cc(=O)n3n2)cc1 [Example 5l, 2-(((4-(pentyloxy)phenyl)amino)methyl)-5-propyl-[1,2,4]triazolo[1,5-a]pyrimidin-7(4H)-one]	> 100	

IC50 [1] [µM]	Compound	GI50 ([2]; Homo sapiens, HREC, 44 h) [µM]	GI50 ([2]; 44 hours) [µM]
0.525	CCCc1cc(=O)n2nc(CNc3ccc(F)cc3)nc2[nH]1 [Example 5m, 2-(((4-fluorophenyl)amino)methyl)-5-propyl-[1,2,4]triazolo[1,5-a]pyrimidin-7(4H)-one]	> 100	
34.1	CCCc1cc(=O)n2nc(CNc3ccc(OC(F)(F)F)cc3)nc2[nH]1 [Example 5n, 5-propyl-2-(((4-(trifluoromethoxy)phenyl)amino)methyl)-[1,2,4]triazolo[1,5-a]pyrimidin-7(4H)-one]	> 100	
> 100	Cc1ccccc1NCc1nc2[nH]c3c(c(=O)n2n1)CCC3 [Example 5o, 2-((o-tolylamino)methyl)-4,5,6,7-tetrahydro-8H-cyclopenta[d][1,2,4]triazolo[1,5-a]pyrimidin-8-one]	> 100	
9.34	Cc1cccc(NCc2nc3[nH]c4c(c(=O)n3n2)CCC4)c1 [Example 5p, 2-((m-tolylamino)methyl)-4,5,6,7-tetrahydro-8H-cyclopenta[d][1,2,4]triazolo[1,5-a]pyrimidin-8-one]	> 100	
3.62	Cc1ccc(NCc2nc3[nH]c4c(c(=O)n3n2)CCC4)cc1 [Example 5q, 2-((p-tolylamino)methyl)-4,5,6,7-tetrahydro-8H-cyclopenta[d][1,2,4]triazolo[,5-a]pyrimidin-8-one]	> 100	
17.9	Cc1ccccc1NCc1nc2[nH]c(C(C)C)cc(=O)n2n1 [Example 5r, 5-isopropyl-2-((o-tolylamino)methyl)-[1,2,4]triazolo[1,5-a]pyrimidin-7(4H)-one]	> 100	
28.1	Cc1cccc(NCc2nc3[nH]c(C(C)C)cc(=O)n3n2)c1 [Example 5s, 5-isopropyl-2-((m-tolylamino)methyl)-[1,2,4]triazolo[1,5-a]pyrimidin-7(4H)-one]	> 100	
16.8	Cc1ccc(NCc2nc3[nH]c(C(C)C)cc(=O)n3n2)cc1 [Example 5t, 5-isopropyl-2-((p-tolylamino)methyl)-[1,2,4]triazolo[1,5-a]pyrimidin-7(4H)-one]	> 100	
77.2	Cc1cc(=O)n2nc(CNc3ccccc3C)nc2[nH]1 [Example 5u, 5-methyl-2-((o-tolylamino)methyl)-[1,2,4]triazolo[1,5-a]pyrimidin-7(4H)-one]	> 100	
18.7	Cc1cccc(NCc2nc3[nH]c(C)cc(=O)n3n2)c1 [Example 5v, 5-methyl-2-((m-tolylamino)methyl)-[1,2,4]triazolo[1,5-a]pyrimidin-7(4H)-one]	> 100	
22.5	Cc1ccc(NCc2nc3[nH]c(C)cc(=O)n3n2)cc1 [Example 5w, 5-methyl-2-((p-tolylamino)methyl)-[1,2,4]triazolo[1,5-a]pyrimidin-7(4H)-one]	> 100	
0.808	COc1ccc(Cl)cc1NCc1cc(=O)n2nc(-c3ccc(C(C)(C)C)cc3)nc2[nH]1 [Example D351-0303]	21.7	
0.0981	Cc1ccc(Cl)cc1NCc1cc(=O)n2nc(-c3ccc(C(C)(C)C)cc3)nc2[nH]1 [Example D351-0310]	42.3	
1.39	Cc1cccc(C)c1NCc1cc(=O)n2nc(-c3ccc(C(C)(C)C)cc3)nc2[nH]1 [Example D351-0312]	> 100	
	COc1cccc(NCc2cc(=O)n3nc(-c4ccc(C(C)(C)C)cc4)nc3[nH]2)c1 [Example D351-0319]	> 100	
0.346	Cc1ccc(Cl)cc1NCc1cc(=O)n2nc(-c3ccccc3C)nc2[nH]1 [Example D351-0414]	> 100	
0.751	Cc1c(Cl)cccc1NCc1nc2[nH]c(C(C)C)cc(=O)n2n1 [Example D433-1800]		
